How the values were obtained:
Rattus norvegicus [1] = test: Memory enhancement effect in scopolamine-induced Wistar rat model of amnesia assessed as exploration time for familiar object in retention trial at 0.5 mg/kg, po administered as single dose and measured on day 9 by novel object recognition test (reference value: 8.59 sec); type: functional
Rattus norvegicus [2] = test: Memory enhancement effect in scopolamine-induced Wistar rat model of amnesia assessed as increase in novel object discrimination index at 0.5 mg/kg, po administered as single dose and measured on day 9 by novel object recognition test (reference value: 0.21); type: functional
Rattus norvegicus [3] = test: Memory enhancement effect in scopolamine-induced Wistar rat model of amnesia assessed as exploration time for familiar object in retention trial at 0.05 mg/kg, po for 7 days and measured on day 8 by novel object recognition test (reference value: 8.59 sec); type: functional
Rattus norvegicus [4] = test: Memory enhancement effect in scopolamine-induced Wistar rat model of amnesia assessed as increase in exploration time for novel object in retention trial at 0.15 mg/kg, po administered as single dose and measured on day 9 by novel object recognition test (reference value: 12.09 sec); type: functional
[5] = target: Neuronal acetylcholine receptor subunit alpha-7 (Homo sapiens, UniProt P36544); test: Positive allosteric modulatory activity against alpha7 nAChR in human IMR-32 cells assessed as potentiation of PNU-282987-induced Ca2+ […] at 1 uM by FLIPR assay relative to control; type: cell-based
Sequence of Neuronal acetylcholine receptor subunit alpha-7 (P36544 whole entry): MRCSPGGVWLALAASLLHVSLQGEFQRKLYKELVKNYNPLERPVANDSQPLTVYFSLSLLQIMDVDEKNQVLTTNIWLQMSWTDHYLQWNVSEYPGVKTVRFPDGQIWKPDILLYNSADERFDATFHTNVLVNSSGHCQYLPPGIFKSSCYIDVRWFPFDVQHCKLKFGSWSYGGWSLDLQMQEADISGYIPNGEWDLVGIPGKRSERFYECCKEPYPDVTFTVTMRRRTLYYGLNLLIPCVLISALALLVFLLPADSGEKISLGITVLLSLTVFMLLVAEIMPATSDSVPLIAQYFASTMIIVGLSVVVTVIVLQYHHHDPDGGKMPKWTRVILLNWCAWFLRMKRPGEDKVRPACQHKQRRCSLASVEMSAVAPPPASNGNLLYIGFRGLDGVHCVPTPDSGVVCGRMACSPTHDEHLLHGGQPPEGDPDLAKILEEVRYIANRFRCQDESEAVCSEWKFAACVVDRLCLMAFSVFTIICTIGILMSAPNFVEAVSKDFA

Rattus norvegicus [6] = test: Improvement in social recognition scopolamine-induced Sprague-Dawley rat model of amnesia assessed as increase in reduction in social investigation time at 0.15 mg/kg, po for 7 days measured after 24 hrs (Rvb =6.59%); type: functional; design: scale not given: the % may be the effect or the level left
Rattus norvegicus [7] = test: Memory enhancement effect in time-delay induced Wistar rat model of amnesia assessed as exploration time for object2 in acquisition trial at 1 mg/kg, po administered as single dose and measured on day 8 by novel object recognition test (reference value: 16.33 sec); type: functional
[8] = AUC (0 to 144 hrs) in Wistar rat at 1 mg/kg, iv after 0.083 to 144 hrs by LC-MS/MS analysis; type: ADME, organism-based; design: time < 144 hr, dose 1 mg/kg, route intravenous; conditions: in vivo
Rattus norvegicus [9] = test: Memory enhancement effect in scopolamine-induced Wistar rat model of amnesia assessed as exploration time for object1 in acquisition trial at 0.5 mg/kg, po administered as single dose and measured on day 8 by novel object recognition test (reference value: 16.11 sec); type: functional
[10] = Cmax in Wistar rat at 1 mg/kg, iv after 0.083 to 144 hrs by LC-MS/MS analysis; type: ADME, organism-based; design: dose 1 mg/kg, route intravenous; conditions: in vivo
Rattus norvegicus [11] = test: Memory enhancement effect in scopolamine-induced Wistar rat model of amnesia assessed as exploration time for object1 in acquisition trial at 0.15 mg/kg, po administered as single dose and measured on day 8 by novel object recognition test (reference value: 16.11 sec); type: functional
Rattus norvegicus [12] = test: Memory enhancement effect in time-delay induced Wistar rat model of amnesia assessed as increase in novel object discrimination at 1 mg/kg, po administered as single dose after acquisition trial by novel object recognition test (reference value: 0.08); type: functional
[13] = Metabolic stability in dog liver microsomes assessed as compound remaining at 1 uM preincubated for 5 mins followed by NADPH addition and measured after 30 mins by LC-MS/MS analysis; type: ADME, Canis lupus familiaris, Microsome; conditions: read-out: Stability
[14] = AUClast in BALB/c mouse at 1 mg/kg, iv after 0.083 to 144 hrs by LC-MS/MS analysis; type: ADME, organism-based; design: dose 1 mg/kg, time upper 144 hr, time lower 0.083 hr, route intravenous; conditions: in vivo
[15] = Drug level in Sprague-Dawley rat plasma at 0.05 mg/kg, po for 7 days; type: ADME, organism-based
[16] = Brain to plasma permeability coefficient, Kp in Wistar rat at 10 mg/kg, po after 4 hrs by LC-MS/MS analysis; type: ADME, organism-based
Rattus norvegicus [17] = test: Improvement in social recognition scopolamine-induced Sprague-Dawley rat model of amnesia assessed as reduction in recognition index at 0.15 mg/kg, po for 7 days measured after 24 hrs (reference value: 0.93); type: functional
Rattus norvegicus [18] = test: Memory enhancement effect in time-delay induced Wistar rat model of amnesia assessed as exploration time for object2 in acquisition trial at 0.05 mg/kg, po for 7 days and measured on day 8 by novel object recognition test (reference value: 11.76 sec); type: functional
[19] = AUClast in Beagle dog at 1 mg/kg, iv after 0.083 to 144 hrs by LC-MS/MS analysis; type: ADME, organism-based, Canis lupus familiaris; design: dose 1 mg/kg, time 0.083-144 hr, route intravenous; conditions: in vivo
Rattus norvegicus [20] = test: Memory enhancement effect in time-delay induced Wistar rat model of amnesia assessed as exploration time for novel object at 1 mg/kg, po administered as single dose after acquisition trial by novel object recognition test (reference value: 12.81 sec); type: functional
Cytochrome P450 2E1 = Cytochrome P450 2E1 (Homo sapiens, UniProt P05181); test: Inhibition of CYP2E1 (unknown origin) up to 10 uM; type: ADME
Sequence of Cytochrome P450 2E1 (P05181 whole entry): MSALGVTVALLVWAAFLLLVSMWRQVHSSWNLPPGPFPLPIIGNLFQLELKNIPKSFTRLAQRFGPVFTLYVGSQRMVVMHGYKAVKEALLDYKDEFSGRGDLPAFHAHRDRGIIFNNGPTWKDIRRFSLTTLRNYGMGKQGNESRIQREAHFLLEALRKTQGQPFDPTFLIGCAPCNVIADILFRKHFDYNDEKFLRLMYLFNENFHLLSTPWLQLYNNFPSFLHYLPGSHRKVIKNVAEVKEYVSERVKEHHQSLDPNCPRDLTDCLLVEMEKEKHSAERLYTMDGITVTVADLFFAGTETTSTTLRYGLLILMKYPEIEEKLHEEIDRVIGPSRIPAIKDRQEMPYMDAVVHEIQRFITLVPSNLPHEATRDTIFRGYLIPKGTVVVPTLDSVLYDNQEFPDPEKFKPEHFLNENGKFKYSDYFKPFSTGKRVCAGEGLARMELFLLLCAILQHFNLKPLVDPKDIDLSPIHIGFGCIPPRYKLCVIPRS

[21] = Tmax in Wistar rat at 10 mg/kg, po after 0.25 to 144 hrs by LC-MS/MS analysis; type: ADME, organism-based; conditions: in vivo
Rattus norvegicus [22] = test: Memory enhancement effect in time-delay induced Wistar rat model of amnesia assessed as increase in discrimination index at 0.5 mg/kg, po for 7 days and measured on day 8 by novel object recognition test (reference value: 0.12); type: functional
[23] = Drug concentration in Wistar rat plasma at 10 mg/kg, po after 24 hrs by LC-MS/MS analysis; type: ADME, organism-based
[24] = Protein binding in human plasma at 5 uM incubated for 16 hrs under shaking condition by LC/MS/MS based rapid equilibrium dialysis method; type: ADME, cell-free; conditions: read-out: PPB (converted)
Rattus norvegicus [25] = test: Memory enhancement effect in scopolamine-induced Wistar rat model of amnesia assessed as exploration time for novel object in retention trial at 0.5 mg/kg, po for 7 days and measured on day 8 by novel object recognition test (reference value: 12.09 sec); type: functional
Rattus norvegicus [26] = test: Improvement in social recognition scopolamine-induced Sprague-Dawley rat model of amnesia assessed as reduction in recognition index at 1 mg/kg, po administered as single dose prior to 1 hr training and measured after 30 mins (reference value: 0.9); type: functional
Rattus norvegicus [27] = test: Improvement in social recognition time delay-induced Sprague-Dawley rat model of amnesia assessed as increase in reduction in social investigation time at 1 mg/kg, po administered as single dose prior to 1 hr training and measured after 30 mins (reference value: 0.39%); type: functional; design: scale not given: the % may be the effect or the level left
[28] = Volume of distribution at steady state in BALB/c mouse at 1 mg/kg, iv after 0.083 to 144 hrs by LC-MS/MS analysis; type: ADME, organism-based; conditions: in vivo, read-out: Vdss
[29] = AUClast in Beagle dog at 10 mg/kg, po after 0.25 to 144 hrs by LC-MS/MS analysis; type: ADME, organism-based, Canis lupus familiaris; design: time upper 144 hr, dose 10 mg/kg, time lower 0.25 hr, route oral; conditions: in vivo
[30] = Tmax in Beagle dog at 10 mg/kg, po after 0.25 to 144 hrs by LC-MS/MS analysis; type: ADME, organism-based, Canis lupus familiaris; conditions: in vivo
Rattus norvegicus [31] = test: Memory enhancement effect in time-delay induced Wistar rat model of amnesia assessed as exploration time for object2 in acquisition trial at 0.15 mg/kg, po for 7 days and measured on day 8 by novel object recognition test (reference value: 11.76 sec); type: functional
[32] = Cmax in BALB/c mouse at 10 mg/kg, po after 0.25 to 144 hrs by LC-MS/MS analysis; type: ADME, organism-based; design: dose 10 mg/kg, route oral; conditions: in vivo
[33] = Oral bioavailability in Wistar rat at 10 mg/kg after 0.25 to 144 hrs by LC-MS/MS analysis; type: ADME, organism-based; conditions: in vivo

## CCC(=O)c1sc(-c2ccc(Cl)cc2)c(C)c1-c1ccc(S(N)(=O)=O)cc1
Rattus norvegicus [1]
  Time: 6.63 s
Rattus norvegicus [2]
  Activity_index: 0.45
Rattus norvegicus [3]
  Time: 8.03 s
Rattus norvegicus [4]
  Time: 12.8 s
[5]
  fold change (FC): 22
Rattus norvegicus [6]
  Activity: 55.83%
Rattus norvegicus [7]
  Time: 23.96 s
[8]
  AUC(0-t) at 144 h: 27 µM·h
Rattus norvegicus [9]
  Time: 13.94 s
[10]
  Cmax: 1.1 µM
Rattus norvegicus [11]
  Time: 14.08 s
Rattus norvegicus [12]
  Activity_index: 0.38
[13]
  remaining at 0.5 h, 1 µM: 93%
[14]
  AUC(0-t): 11 µM·h
[15]
  concentration at 168 h: 0.13 µM
[16]
  Kp at 4 h: 10.7
Rattus norvegicus [17]
  Activity_index: 0.44
Rattus norvegicus [18]
  Time: 15.41 s
[19]
  AUC(0-t): 47 µM·h
Rattus norvegicus [20]
  Time: 24.46 s
Cytochrome P450 2E1
  inhibition (INH): Not Active
[21]
  Tmax: 5.2 h
Rattus norvegicus [22]
  Activity_index: 0.58
[23]
  concentration at 24 h: 0.74 µM
[24]
  fraction unbound at 16 h, 5 µM: 0.0015
Rattus norvegicus [25]
  Time: 15.06 s
Rattus norvegicus [26]
  Activity_index: 0.52
Rattus norvegicus [27]
  Activity: 31.73%
[28]
  Vd: 4 L/kg
[29]
  AUC(0-t): 282 µM·h
[30]
  Tmax: 1.5 h
Rattus norvegicus [31]
  Time: 13.58 s
[32]
  Cmax: 3.4 µM
[33]
  bioavailability: 74%

Reference: ChEMBL document CHEMBL4354827, “Discovery of Novel, Potent, Brain-Permeable, and Orally Efficacious Positive Allosteric Modulator of α7 Nicotinic Acetylcholine Receptor [4-(5-(4-Chlorophenyl)-4-methyl-2-propionylthiophen-3-yl)benzenesulfonamide]: Structure-Activity Relationship and Preclinical Characterization” (J Med Chem, 2020)
